Values after ≈ are worked out from the molar mass of the structure shown.
Legend:
[1] = Solubility trials of rutin in water, ethanol, methanol and NADES, quantified by HPLC-DAD; assay type: physicochemical; details: 22 °C
Procedure: Samples were stirred on a magnetic stirrer (Stuart, Bibby Scientific Ltd., Stone, Staffordshire, UK) for one hour at room temperature and centrifuged for 21 min at 13,000 rpm with Eppendorf 5415 R centrifuge The time of one-hour stirring was chosen because it was sufficient for all the prepared mixtures to reach maximum concentration of rutin. […] Calibration curve was obtained injecting standard solution at different concentrations namely (50, 25, 10, 5 and 1 μg/mL) Calibration curve was as follows y = 17.832 x + 9.7822 (R^2 was 0.9998). Limit of Quantification was 1 μg/mL. For HPLC-DAD a series 1260 HPLC instrument (Agilent, Cernusco Sul Naviglio (MI), Italy) equipped with a quaternary pump, a diode-array detector, an auto sampler and a column oven compartment was used. Analyses were performed on Eclipse XDB C8 column (5 μm, 4.6 mm × 150 mm, Agilent). The mobile phase was (A) water-formic acid (99.9:0.1, v/v) and (B) acetonitrile. A gradient program was used as follows: [0 → 10[…] (60:40) 10 → 11[…] (0:100) 11 → 12[…] (0:100) 12 → 13[…] (90:10) 13 → 14[…] (90:10)]. The mobile phase flow rate was 1.2 mL/min and the injection volume was 10 μL. The chromatogram was recorded at 350 nm and spectral data for all peaks were obtained in the range of 190-400 nm. The retention time of rutin in the analysis conditions was 3.8 min.

[2] = design: method as in PMID 25030991; details: rat plasma; 2.5 mg/kg sublingual vein administration; cited from earlier work
[3] = design: method as in PMID 11151743; details: healthy volunteers, various dose levels; quercetin glucuronides and/or sulfates measured; cited from earlier work

## C[C@@H]1O[C@@H](OC[C@H]2O[C@@H](Oc3c(-c4ccc(O)c(O)c4)oc4cc(O)cc(O)c4c3=O)[C@H](O)[C@@H](O)[C@@H]2O)[C@H](O)[C@H](O)[C@H]1O [rutin]
[1]; Citric Acid–Fructose 1:1 (NADES mixture 7), organic solvent or mixture, thermodynamic from solid, solvent mixture 7 Citric Acid–Fructose 1:1
  solubility at 1 h: 205 ± 5.1 µg/mL (≈ 336 µM)
[1]; Glucose–Citric Acid–Water 1:1:1 (NADES mixture 9), solvent mixture 9 Glucose–Citric Acid–Water 1:1:1
  solubility at 1 h: 175 ± 3.7 µg/mL (≈ 287 µM)
[1]; Glucose–Fructose–Sorbitol 1:1:1 (NADES mixture 6), organic solvent or mixture, thermodynamic from solid, solvent mixture 6 Glucose–Fructose–Sorbitol 1:1:1
  solubility at 1 h: 90.8 ± 1.9 µg/mL (≈ 149 µM)
[1]; Glucose–Fructose–Water 1:1:1 (NADES mixture 5), organic solvent or mixture, thermodynamic from solid, solvent mixture 5 Glucose–Fructose–Water 1:1:1
  solubility at 1 h: 81.9 ± 2.5 µg/mL (≈ 134 µM)
[1]; Proline–Glutamic Acid 1:1 (NADES mixture 10), solvent mixture 10 Proline–Glutamic Acid 1:1
  solubility at 1 h: 2260 ± 63.4 µg/mL (≈ 3700 µM)
[1]; Proline–Glutamic Acid 2:1 (NADES mixture 11), organic solvent or mixture, thermodynamic from solid, solvent mixture 11 Proline–Glutamic Acid 2:1
  solubility at 1 h: 2940 ± 118 µg/mL (≈ 4810 µM)
[1]; Tartaric Acid–Fructose 1:1 (NADES mixture 8), organic solvent or mixture, thermodynamic from solid, solvent mixture 8 Tartaric Acid–Fructose 1:1
  solubility at 1 h: 504 ± 16.4 µg/mL (≈ 826 µM)
[1]; ethanol, solvent Ethanol, mean ± SD of 3
  solubility at 1 h: 2370 ± 93.2 µg/mL (≈ 3880 µM)
[1]; methanol, solvent Methanol, mean ± SD of 3
  solubility at 1 h: 2050 ± 89.7 µg/mL (≈ 3360 µM)
[1]; natural deep eutectic solvent (NADES), organic solvent or mixture, thermodynamic from solid, solvent mixture 1 Urea–Glucose–Citric Acid 1:1:1
  solubility at 1 h: 379 ± 8.5 µg/mL (≈ 620 µM)
[1]; natural deep eutectic solvent (NADES), organic solvent or mixture, thermodynamic from solid, solvent mixture 2 Urea–Glucose–Fructose 1:1:1
  solubility at 1 h: 961 ± 30.6 µg/mL (≈ 1570 µM)
[1]; natural deep eutectic solvent (NADES), organic solvent or mixture, thermodynamic from solid, solvent mixture 3 Urea–Tartaric Acid 1:1
  solubility at 1 h: 680 ± 19 µg/mL (≈ 1110 µM)
[1]; natural deep eutectic solvent (NADES), organic solvent or mixture, thermodynamic from solid, solvent mixture 4 Urea–Choline chloride 1:1
  solubility at 1 h: 1880 ± 48.1 µg/mL (≈ 3080 µM)
[1]; natural deep eutectic solvent (NADES), organic solvent or mixture, thermodynamic from solid, solvent mixture 12 Proline–Oxalic Acid 1:1
  solubility at 1 h: 749 ± 22.5 µg/mL (≈ 1230 µM)
[1]; natural deep eutectic solvent (NADES), organic solvent or mixture, thermodynamic from solid, solvent mixture 14 Ornitine–Tartaric Acid 1:1
  solubility at 1 h: 210 ± 5.7 µg/mL (≈ 343 µM)
[1]; natural deep eutectic solvent (NADES), organic solvent or mixture, thermodynamic from solid, solvent mixture 15 Arginine–Tartaric Acid 1:1
  solubility at 1 h: 363 ± 11.2 µg/mL (≈ 594 µM)
[1]; natural deep eutectic solvent (NADES), organic solvent or mixture, thermodynamic from solid, solvent mixture 16 Citrulline–Tartaric Acid 1.1
  solubility at 1 h: 370 ± 13.1 µg/mL (≈ 607 µM)
[1]; natural deep eutectic solvent (NADES), organic solvent or mixture, thermodynamic from solid, solvent mixture 17 Arginine–Oxalic Acid 1:1
  solubility at 1 h: 414 ± 13.6 µg/mL (≈ 679 µM)
[1]; natural deep eutectic solvent (NADES), organic solvent or mixture, thermodynamic from solid, solvent mixture 18 Proline–Malic Acid 1:1
  solubility at 1 h: 900 ± 31.1 µg/mL (≈ 1470 µM)
[1]; natural deep eutectic solvent (NADES), organic solvent or mixture, thermodynamic from solid, solvent mixture 19 Arginin–Malic Acid 1:1
  solubility at 1 h: 457 ± 17.8 µg/mL (≈ 749 µM)
[1]; natural deep eutectic solvent (NADES), organic solvent or mixture, thermodynamic from solid, solvent mixture 20 Ornitine–Malic Acid 1:1
  solubility at 1 h: 408 ± 14.8 µg/mL (≈ 668 µM)
[1]; natural deep eutectic solvent (NADES), organic solvent or mixture, thermodynamic from solid, solvent mixture 21 Citrulline–Malic Acid 1:1
  solubility at 1 h: 454 ± 18.5 µg/mL (≈ 744 µM)
[1]; natural deep eutectic solvent (NADES), organic solvent or mixture, thermodynamic from solid, solvent mixture 22 Proline–Citric Acid 1:1
  solubility at 1 h: 672 ± 26.2 µg/mL (≈ 1100 µM)
[1]; natural deep eutectic solvent (NADES), organic solvent or mixture, thermodynamic from solid, solvent mixture 23 Arginine–Citric Acid 1:1
  solubility at 1 h: 414 ± 13.3 µg/mL (≈ 679 µM)
[1]; natural deep eutectic solvent (NADES), organic solvent or mixture, thermodynamic from solid, solvent mixture 24 Ornitine–Citric Acid1:1
  solubility at 1 h: 425 ± 17.2 µg/mL (≈ 696 µM)
[1]; natural deep eutectic solvent (NADES), organic solvent or mixture, thermodynamic from solid, solvent mixture 25 Citrulline–Citric Acid 1:1
  solubility at 1 h: 460 ± 14.4 µg/mL (≈ 753 µM)
[1]; natural deep eutectic solvent (NADES), organic solvent or mixture, thermodynamic from solid, solvent mixture 26 Proline–Glucose1:1
  solubility at 1 h: 879 ± 31.3 µg/mL (≈ 1440 µM)
[1]; natural deep eutectic solvent (NADES), organic solvent or mixture, thermodynamic from solid, solvent mixture 27 Proline–Fructose 1:1
  solubility at 1 h: 1560 ± 43.8 µg/mL (≈ 2560 µM)
[1]; natural deep eutectic solvent (NADES), organic solvent or mixture, thermodynamic from solid, solvent mixture 28 Proline–Choline Chloride 1:2
  solubility at 1 h: 2640 ± 101 µg/mL (≈ 4330 µM)
[1]; natural deep eutectic solvent (NADES), organic solvent or mixture, thermodynamic from solid, solvent mixture 29 Proline–Choline Chloride 1:3
  solubility at 1 h: 2800 ± 103 µg/mL (≈ 4580 µM)
[1]; natural deep eutectic solvent (NADES), organic solvent or mixture, thermodynamic from solid, solvent mixture 30 Choline Chloride–Malic Acid 1:1
  solubility at 1 h: 702 ± 22.3 µg/mL (≈ 1150 µM)
[1]; water, solvent Water, mean ± SD of 3
  solubility at 1 h: 120 ± 4.9 µg/mL (≈ 197 µM)
[2]
  maximum concentration: 1659 ng/mL
  time of maximum concentration: 5 min
[3]
  rutin in plasma after oral dosing: no rutin was detectable

From paper PMC6272970 (Molecules, 2016)
